How the values were obtained:
[1] = target: T1, Eg5 ATPase (Homo sapiens, UniProt P52732); assay: Microtubule-activated Eg5 ATPase inhibition assay (Kinesin ELISA kit BK060); assay type: biochemical; conditions: for inhibition at 10 µM: mean of 3 replicates
T1 construct: purchased Cytoskeleton, Inc BK060
T1 sequence (P52732 1-1056): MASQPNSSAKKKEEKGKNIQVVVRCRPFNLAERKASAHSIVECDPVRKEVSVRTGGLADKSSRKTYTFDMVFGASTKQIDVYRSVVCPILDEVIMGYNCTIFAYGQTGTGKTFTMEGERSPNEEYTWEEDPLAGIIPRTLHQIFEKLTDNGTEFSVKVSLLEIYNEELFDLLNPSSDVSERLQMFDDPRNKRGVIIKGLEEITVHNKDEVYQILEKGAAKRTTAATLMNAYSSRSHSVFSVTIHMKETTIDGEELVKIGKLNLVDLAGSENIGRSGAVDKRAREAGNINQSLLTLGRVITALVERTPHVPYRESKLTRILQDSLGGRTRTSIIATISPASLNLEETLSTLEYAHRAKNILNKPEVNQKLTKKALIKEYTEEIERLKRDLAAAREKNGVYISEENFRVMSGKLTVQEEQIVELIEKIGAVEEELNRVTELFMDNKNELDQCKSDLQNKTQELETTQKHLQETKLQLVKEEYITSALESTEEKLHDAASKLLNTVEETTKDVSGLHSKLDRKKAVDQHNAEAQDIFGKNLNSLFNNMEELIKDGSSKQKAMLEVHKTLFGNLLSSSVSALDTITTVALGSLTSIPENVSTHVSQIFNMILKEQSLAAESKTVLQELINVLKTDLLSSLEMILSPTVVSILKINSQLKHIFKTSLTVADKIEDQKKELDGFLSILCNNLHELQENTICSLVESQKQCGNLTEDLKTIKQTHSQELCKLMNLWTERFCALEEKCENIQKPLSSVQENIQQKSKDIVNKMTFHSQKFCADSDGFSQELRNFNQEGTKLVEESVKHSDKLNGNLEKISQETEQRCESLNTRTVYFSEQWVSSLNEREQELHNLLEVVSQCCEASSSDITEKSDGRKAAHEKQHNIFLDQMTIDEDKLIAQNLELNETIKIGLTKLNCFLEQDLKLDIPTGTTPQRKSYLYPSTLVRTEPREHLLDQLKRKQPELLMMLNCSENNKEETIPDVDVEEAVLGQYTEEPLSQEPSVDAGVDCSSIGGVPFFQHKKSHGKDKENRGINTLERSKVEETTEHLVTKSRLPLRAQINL
Protocol: Microtubule (MT)-activated enzymatic Eg5-ATPase activity were measured in order to evaluate the inhibitory activity of the selected compounds at […]. The MT—ATPase activity was analysed using Kinesin ELISA kit (BK060) (Cytoskeleton, Inc) and Monastrol was used as a control. The procedures were applied according to the manufacturer’s instructions. The IC50 of compound 5 which were required for inhibiting 50% of Eg5 ATPase activity was measured using ELISA kit (BK060) (Cytoskeleton, Inc, Denver, CO) according to the manufacturer’s instructions.
The Eg5 ATPase activity of the six hits at 10 µM was investigated in comparison to Monastrol (10 µM), as it acted as a positive control compound. […] Similarly compounds 1, 3 and 4 caused 40, 35 and 30% inhibition activity respectively.

[2] = system: Hela cells; assay: Immunofluorescence assay, inhibition of mitotic spindle formation; assay type: cell-based; conditions: 10 µM, 24 h, tubulin immunofluorescence
Protocol: […] Monastrol was used as a positive control, while 0.1% DMSO was used as a negative control. The cells were rinsed with PBS, fixed with 3.7% paraformaldehyde, and permeabilized with 0.1% Triton X-100. The cells were blocked with 1% BSA in PBS for 1 h prior to incubation with anti-β-tubulin mouse monoclonal antibody (#86,298, Cell Signaling, San Francisco, CA, USA) overnight at 4 °C. The cells were washed with PBS for 1 h in the dark, and then incubated with Alexa Fluor® 488 secondary antibodies (Abcam).
Further investigation of compound 5 was performed, which consisted of an immunofluorescence assay that was used to analyse the mechanism of compound 5 on the organisation of the microtubules into mitotic spindles during divisions of the cells.

[3] = target: Eg5 protein; design: method as in PMID 35251692; conditions: read-out: Ki against Eg5 protein; cited from earlier work

inhibition at 10 µM [1] | Structure (SMILES) | also measured
40% | COc1ccc(CNc2nc3cc(C(=O)O)ccc3n2Cc2ccccc2C(F)(F)F)cc1 [Compound 1, 1-(2-(trifluoromethyl)benzyl)-2-(4-methoxybenzylamino)-1H-benzo[d]imidazole-5-carboxylic acid] | –
~25% | COc1ccc(C(=O)N2c3ccc(OC(=O)c4ccco4)cc3C(C)=CC2(C)C)cc1 [Compound 2, 1-(4-methoxybenzoyl)-2,2,4-trimethyl-1,2-dihydroquinolin-6-yl furan-2-carboxylate] | –
30% | Cc1ccc(O)c(C(=O)c2cnc3c(c2)c(-c2ccc(F)cc2)c(C#N)c(=O)n3C)c1 [Compound 4, 4-(4-fluorophenyl)-6-(2-hydroxy-5-methylbenzoyl)-1-methyl-2-oxo-1,8-naphthyridine-3-carbonitrile] | –

Continued, compound first:

Structure (SMILES) | inhibition at 10 µM [1] | also measured
COc1cc2nc(-c3cc(-c4ccccc4Cl)nc4ccccc34)[nH]c2cc1OC [Compound 3, 2-(2-chlorophenyl)-4-(5,6-dimethoxy-1H-benzo[d]imidazol-2-yl)quinoline] | 35% | –
Cn1c(=O)[nH]c(=O)c2c1nc(NCCCn1ccnc1)n2Cc1ccc2ccccc2c1 [Compound 5, 8-(3-(1H-imidazol-1-yl)propylamino)-3-methyl-7-((naphthalen-3-yl)methyl)-1H-purine-2,6(3H,7H)-dione] | 50% | Mitotic spindle morphology [2]: monopolar spindle profiles; IC50 ([1]; read-out: IC50 against Eg5 ATPase): 2370 ± 150 nM
CS(=O)(=O)c1ccc(CNc2nc3cc(C(=O)O)ccc3n2Cc2ccccc2C(F)(F)F)cc1 [Compound 6, 1-(2-(trifluoromethyl)benzyl)-2-(4-(methylsulfonyl)benzylamino)-1H-benzo[d]imidazole-5-carboxylic acid] | ~25% | –
O=C1CCc2cc(-c3ccc(C(F)(F)F)cc3)ccc2N1 [GSK-1] | – | Ki [3]: 1.8 nM
NC(=O)Nc1ccc(-c2ccc(C(F)(F)F)cc2)cc1F [GSK-2] | – | Ki [3]: 8.8 nM
CCOC(=O)C1=C(C)NC(=S)NC1c1cccc(O)c1 (stereo not drawn) [Monastrol, reference compound] | 60% | Mitotic spindle morphology [2]: monopolar spindle profiles

Source: PMC10982093, “Identifying and characterising promising small molecule inhibitors of kinesin spindle protein using ligand-based virtual screening, molecular docking, molecular dynamics and MM‑GBSA calculations” (Journal of Computer-Aided Molecular Design, 2024)
